Results taken from ChEMBL document CHEMBL1201862, “PubChem BioAssay data set” (2004).
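Each compound was tested at five concentrations against cells in 96-well plates for 48 hours. GI50 = concentration required for 50% inhibition of growth.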 Activity calls are given as the source filed them. Rule as the data show it: active = GI50 up to about 1.1 µM and inactive = higher.

How the values were obtained:
Assay in all cases: DTP human tumour cell line panel, 48 h
786-0 = system: 786-0
A498 = system: A498
A549 = system: A549
ACHN = system: ACHN
CAKI-1 = system: CAKI-1
CCRF-CEM = system: CCRF-CEM
COLO 205 = system: COLO 205
DU-145 = system: DU-145
EKVX = system: EKVX
HCC 2998 = system: HCC 2998
HCT-116 = system: HCT-116
HCT-15 = system: HCT-15
HL-60 = system: HL-60
HOP-62 = system: HOP-62
HOP-92 = system: HOP-92
HT-29 = system: HT-29
Hs-578T = system: Hs-578T
IGROV-1 = system: IGROV-1
K562 = system: K562
KM12 = system: KM12
LOX IMVI = system: LOX IMVI
M14 = system: M14
MCF7 = system: MCF7
MDA-MB-231 = system: MDA-MB-231
MDA-MB-435 = system: MDA-MB-435
MDA-N = system: MDA-N
MOLT-4 = system: MOLT-4
Malme-3M = system: Malme-3M
NCI-H226 = system: NCI-H226
NCI-H23 = system: NCI-H23
NCI-H460 = system: NCI-H460
NCI-H522 = system: NCI-H522
NCI/ADR-RES = system: NCI/ADR-RES
OVCAR-3 = system: OVCAR-3
OVCAR-4 = system: OVCAR-4
OVCAR-5 = system: OVCAR-5
OVCAR-8 = system: OVCAR-8
PC-3 = system: PC-3
RPMI-8226 = system: RPMI-8226
RXF 393 = system: RXF 393
SF-268 = system: SF-268
SF-295 = system: SF-295
SF-539 = system: SF-539
SK-MEL-28 = system: SK-MEL-28
SK-MEL-2 = system: SK-MEL-2
SK-MEL-5 = system: SK-MEL-5
SK-OV-3 = system: SK-OV-3
SN12C = system: SN12C
SNB-19 = system: SNB-19
SNB-75 = system: SNB-75
SR = system: SR
SW-620 = system: SW-620
T47D = system: T47D
TK-10 = system: TK-10
U-251 = system: U-251
UACC-257 = system: UACC-257
UACC-62 = system: UACC-62
UO-31 = system: UO-31
BT-549 = system: BT-549

COc1ccc(N(C(=O)NCCO)c2ccccc2)cc1
GI50 (786-0): > 100 µM (inactive) | GI50 (A498): > 100 µM (inactive) | GI50 (A549): > 100 µM (inactive) | GI50 (ACHN): > 100 µM (inactive) | GI50 (CAKI-1): > 100 µM (inactive) | GI50 (CCRF-CEM): > 100 µM (inactive) | GI50 (COLO 205): > 100 µM (inactive) | GI50 (DU-145): > 100 µM (inactive) | GI50 (EKVX): > 100 µM (inactive) | GI50 (HCC 2998): > 100 µM (inactive) | GI50 (HCT-116): > 100 µM (inactive) | GI50 (HCT-15): > 100 µM | GI50 (HL-60): > 100 µM (inactive) | GI50 (HOP-62): > 100 µM (inactive) | GI50 (HOP-92): > 100 µM (inactive) | GI50 (HT-29): > 100 µM (inactive) | GI50 (Hs-578T): > 100 µM (inactive) | GI50 (IGROV-1): > 100 µM (inactive) | GI50 (K562): > 100 µM (inactive) | GI50 (KM12): > 100 µM (inactive) | GI50 (LOX IMVI): > 100 µM (inactive) | GI50 (M14): > 100 µM (inactive) | GI50 (MCF7): > 100 µM (inactive) | GI50 (MDA-MB-231): > 100 µM (inactive) | GI50 (MDA-MB-435): > 100 µM (inactive) | GI50 (MDA-N): > 100 µM (inactive) | GI50 (MOLT-4): > 100 µM (inactive) | GI50 (Malme-3M): > 100 µM (inactive) | GI50 (NCI-H226): > 100 µM (inactive) | GI50 (NCI-H23): > 100 µM (inactive) | GI50 (NCI-H460): > 100 µM (inactive) | GI50 (NCI-H522): > 100 µM (inactive) | GI50 (NCI/ADR-RES): > 100 µM (inactive) | GI50 (OVCAR-3): > 100 µM (inactive) | GI50 (OVCAR-4): > 100 µM (inactive) | GI50 (OVCAR-5): > 100 µM (inactive) | GI50 (OVCAR-8): > 100 µM (inactive) | GI50 (PC-3): > 100 µM (inactive) | GI50 (RPMI-8226): > 100 µM (inactive) | GI50 (RXF 393): > 100 µM (inactive) | GI50 (SF-268): > 100 µM (inactive) | GI50 (SF-295): > 100 µM (inactive) | GI50 (SF-539): > 100 µM (inactive) | GI50 (SK-MEL-28): > 100 µM (inactive) | GI50 (SK-MEL-2): > 100 µM (inactive) | GI50 (SK-MEL-5): > 100 µM (inactive) | GI50 (SK-OV-3): > 100 µM (inactive) | GI50 (SN12C): > 100 µM (inactive) | GI50 (SNB-19): > 100 µM (inactive) | GI50 (SNB-75): > 100 µM (inactive) | GI50 (SR): > 100 µM (inactive) | GI50 (SW-620): > 100 µM (inactive) | GI50 (T47D): > 100 µM (inactive) | GI50 (TK-10): > 100 µM (inactive) | GI50 (U-251): > 100 µM (inactive) | GI50 (UACC-257): > 100 µM (inactive) | GI50 (UACC-62): > 100 µM (inactive) | GI50 (UO-31): > 100 µM (inactive)

N=C(N)N/N=C\c1c(-c2cccc([N+](=O)[O-])c2)nc2sccn12
GI50 (786-0): 3.89 µM (inactive) | GI50 (A498): 25 µM (inactive) | GI50 (A549): 18.1 µM (inactive) | GI50 (ACHN): 2.86 µM (inactive) | GI50 (BT-549): 2.1 µM (inactive) | GI50 (CAKI-1): 17.4 µM (inactive) | GI50 (CCRF-CEM): 2.93 µM (inactive) | GI50 (COLO 205): 2.39 µM (inactive) | GI50 (DU-145): 5.16 µM (inactive) | GI50 (EKVX): 15.9 µM (inactive) | GI50 (HCC 2998): 2.39 µM (inactive) | GI50 (HCT-116): 7.73 µM (inactive) | GI50 (HCT-15): 9.68 µM | GI50 (HL-60): 28.9 µM (inactive) | GI50 (HOP-62): 3.54 µM (inactive) | GI50 (HOP-92): 5.93 µM (inactive) | GI50 (HT-29): 1.96 µM (inactive) | GI50 (Hs-578T): 3.62 µM (inactive) | GI50 (IGROV-1): 15 µM (inactive) | GI50 (K562): 2.8 µM (inactive) | GI50 (KM12): 1.02 µM (active) | GI50 (LOX IMVI): 3.89 µM (inactive) | GI50 (M14): 2.52 µM (inactive) | GI50 (MCF7): 2.03 µM (inactive) | GI50 (MDA-MB-231): 2.15 µM (inactive) | GI50 (MDA-MB-435): 2.59 µM (inactive) | GI50 (MOLT-4): 1.92 µM (inactive) | GI50 (Malme-3M): 24.4 µM (inactive) | GI50 (NCI-H226): 2.68 µM (inactive) | GI50 (NCI-H23): 3.94 µM (inactive) | GI50 (NCI-H460): 24.4 µM (inactive) | GI50 (NCI-H522): 3.45 µM (inactive) | GI50 (NCI/ADR-RES): > 100 µM (inactive) | GI50 (OVCAR-3): 2.79 µM (inactive) | GI50 (OVCAR-4): 1.76 µM (inactive) | GI50 (OVCAR-5): 3.91 µM (inactive) | GI50 (OVCAR-8): 1.81 µM (inactive) | GI50 (PC-3): 6.7 µM (inactive) | GI50 (RPMI-8226): 17.4 µM (inactive) | GI50 (RXF 393): 2.64 µM (inactive) | GI50 (SF-268): 2.97 µM (inactive) | GI50 (SF-295): 2.64 µM (inactive) | GI50 (SF-539): 17.9 µM (inactive) | GI50 (SK-MEL-28): 2.04 µM (inactive) | GI50 (SK-MEL-2): 2.37 µM (inactive) | GI50 (SK-MEL-5): 14.6 µM (inactive) | GI50 (SN12C): 2.21 µM (inactive) | GI50 (SNB-19): 2.09 µM (inactive) | GI50 (SW-620): 2.08 µM (inactive) | GI50 (T47D): 1.62 µM (inactive) | GI50 (TK-10): 2.47 µM (inactive) | GI50 (U-251): 2.79 µM (inactive) | GI50 (UACC-257): 23.7 µM (inactive) | GI50 (UACC-62): 29 µM (inactive) | GI50 (UO-31): 18.5 µM (inactive)

COc1cc(OC)c2[nH]c3c(O)c(-c4c(C)cc5c([nH]c6c(OC)cc(OC)cc65)c4O)c(C)cc3c2c1
GI50 (786-0): 8.3 µM (inactive) | GI50 (A549): 6.49 µM (inactive) | GI50 (ACHN): 8.77 µM (inactive) | GI50 (BT-549): 9.02 µM (inactive) | GI50 (DU-145): 7.87 µM (inactive) | GI50 (EKVX): 6.22 µM (inactive) | GI50 (HCC 2998): 8.51 µM (inactive) | GI50 (HCT-116): 8.81 µM (inactive) | GI50 (HOP-62): 10.3 µM (inactive) | GI50 (HOP-92): 8.73 µM (inactive) | GI50 (Hs-578T): 9.44 µM (inactive) | GI50 (IGROV-1): 7.18 µM (inactive) | GI50 (KM12): 9.4 µM (inactive) | GI50 (LOX IMVI): 7.89 µM (inactive) | GI50 (M14): 8.38 µM (inactive) | GI50 (MDA-MB-231): 9.23 µM (inactive) | GI50 (NCI-H226): 9.08 µM (inactive) | GI50 (NCI-H460): 8.55 µM (inactive) | GI50 (NCI-H522): 9.06 µM (inactive) | GI50 (NCI/ADR-RES): 8.77 µM (inactive) | GI50 (OVCAR-3): 8.87 µM (inactive) | GI50 (OVCAR-4): 9.42 µM (inactive) | GI50 (OVCAR-8): 8.43 µM (inactive) | GI50 (PC-3): 7.91 µM (inactive) | GI50 (RXF 393): 9.12 µM (inactive) | GI50 (SF-268): 8.39 µM (inactive) | GI50 (SF-539): 9.42 µM (inactive) | GI50 (SK-MEL-28): 9.38 µM (inactive) | GI50 (SK-MEL-2): 9.25 µM (inactive) | GI50 (SNB-75): 7.89 µM (inactive) | GI50 (SW-620): 9.35 µM (inactive) | GI50 (T47D): 8.85 µM (inactive) | GI50 (TK-10): 10.1 µM (inactive) | GI50 (U-251): 11.7 µM (inactive) | GI50 (UACC-257): 9.33 µM (inactive)
